How the values were obtained:
[1] = Acute toxicity, single oral administration; settings: mouse, in vivo; single oral administration to mice
Text: The following Table II contains data concerning the acute toxicity of the above three compounds (LD50 in the case of single oral administration to mice).

[2] = Inflammation-inhibiting activity in established Mycobacterium butyricum arthritis (paw volume, plasma fibrinogen, body weight); type: in vivo, male rats; settings: by intubation each day over 7 days; for Paw volume change: vehicle 0.46 ± 0.08; for Body weight change: vehicle 13.2 ± 1.8; for Plasma Fibrinogen: vehicle 1233 ± 56
Experimental: Representative compounds of formula I were tested for their inflammation-inhibiting properties in the animal test described hereinafter:
0.1 ml of a 0.5% (weight/volume) suspension of heat-killed and dried Mycobacterium butyricum in heavy mineral oil, containing 0.2% digitionin, is injected into the base of the tail of male rats (120-140 g). The animals are housed individually and receive feed and water ad libitum. The thus-produced arthritis is allowed to develop without treatment during 21 days. Then on the one hand the body weight of the animals is determined and on the other hand the volumes of their two hind paws (by immersing the paws in a mercury plethysmograph up to the height of the lateral malleolus). Thereupon, the animals are divided into groups each comprising six animals in each case of approximately the same average volumes of the hind paws. The substance to be investigated is then administered to them by intubation each day over a period of 7 days. At the end of the treatment period, body weight and volumes of the hind paws are again determined and the changes over the treatment period is calculated. Subsequently, the animals are killed and plasma samples are removed from them in order to determine the fibrinogen in accordance with Exner et al., 1979 (Amer. J. Clin. Path.) after precipitation with ammonium sulfate.
The results determined for three representative compounds of formula I, in the animal test described hereinbefore, are set forth in the following Table I.

[3] = Edema-inhibiting properties in carrageen pleuritis; type: in vivo, male rats; settings: 1 hour before and 5 hours after carrageen, 24 hours
Experimental: were tested for their edema-inhibiting properties in the animal test described hereinafter:
A pleuritis is produced in male rats (230-250 g), which receive feed and water ad libitum, by the injection of 0.2 ml of a 1% solution of carrageen in sterile, pyrogen-free sodium chloride solution into the right pleural cavity. The substance to be investigated, suspended in an aqueous vehicle (containing 0.5% carboxymethylcellulose, 0.9% sodium chloride, 0.37% Tween 80 and 0.86% benzyl alcohol), or the vehicle alone, are administered by intubation to the animals 1 hour before and 5 hours after the carrageen injection. Twenty-four (24) hours after the carrageen injection, the animals are killed by decapitation, left to bleed out and the pleural cavity is exposed by cutting through the ribs on both sides of the sternum. The exudate is removed from the pleural cavity by means of a pipette and its volume is determined. Thereupon, the pleural cavity is washed once with phosphate-buffered sodium chloride solution containing fetal bovine serum (1:1) and the wash solution is combined with the exudate. The total number of cells in the pleural cavity is determined using a "Coulter Counter" which is calibrated so that red blood corpuscles are not counted. Cell smears on glass plates can be produced directly from the exudate, fixed in methanol and colored for the differential counting of polymorphonuclear leucocytes (PMN) and macrophages; a total of 200 PMN and macrophages can be counted and the results expressed as a percentage of each type of cell present in the pleural exudate.

| SMILES | LD50 [1] [mg/kg] | Paw volume change ([2]; 22 μmol/kg) [mL] | Body weight change ([2]; 22 μmol/kg) [g] | Plasma Fibrinogen ([2]; 22 μmol/kg) [mg/dL] | Paw volume change ([2]; 66 μmol/kg) [mL] | Body weight change ([2]; 66 μmol/kg) [g] | Plasma Fibrinogen ([2]; 66 μmol/kg) [mg/dL] | % Chance compared with controls, Exudate volume ([3]; 30 mg/kg p.o.) [%] | % Chance compared with controls, Number of cells ([3]; 30 mg/kg p.o.) | % Chance compared with controls, Exudate volume ([3]; 50 mg/kg p.o.) [%] | % Chance compared with controls, Number of cells ([3]; 50 mg/kg p.o.) [%] | % Chance compared with controls, Exudate volume ([3]; 100 mg/kg p.o.) [%] | % Chance compared with controls, Number of cells ([3]; 100 mg/kg p.o.) [%] |
| --- | --- | --- | --- | --- | --- | --- | --- | --- | --- | --- | --- | --- | --- |
| Cc1nccn1N=Cc1cc(C(C)(C)C)c(O)c(C(C)(C)C)c1 [B, 1-(4-hydroxy-3,5-di-tert.butylbenzylideneamino)-2-methylimidazole] | > 1000 | -0.77 ± 0.05 | 28.2 ± 1.4 | 405 ± 126 | -0.84 ± 0.12 | 35.3 ± 1.8 | 75 ± 15 | – | – | – | – | – | – |
| CC(C)(C)c1cc(CNn2ccnc2)cc(C(C)(C)C)c1O [Compound A, 1-(4-Hydroxy-3,5-di-tert.butylbenzylamino)imidazole] | > 1000 | – | – | – | -0.18 ± 0.08 | 30.5 ± 1.2 | 1040 ± 75 | -51 | -12% | -60 | -14 | -68 | -23 |
| CCCc1nccn1NCc1cc(C(C)(C)C)c(O)c(C(C)(C)C)c1 [E, 1-(4-hydroxy-3,5-di-tert.butylbenzylamino)-2-propylimidazole] | – | – | – | – | – | – | – | -39 | +4% | – | – | -73 | -21 |
| Cc1nccn1NCc1cc(C(C)(C)C)c(O)c(C(C)(C)C)c1 [D, 1-(4-hydroxy-3,5-di-tert.-butylbenzylamino)-2-methylimidazole] | – | – | – | – | – | – | – | -29 | -6% | – | – | -60 | -22 |
| CC(C)(C)c1cc(C=Nn2ccnc2)cc(C(C)(C)C)c1O [C, 1-(4-hydroxy-3,5-di-tert.-butylbenzylideneamino)imidazole] | > 1000 | – | – | – | -0.92 ± 0.08 | 31.2 ± 2.0 | 544 ± 97 | – | – | – | – | – | – |
